Measured values: patent US12605407B2, “Methods to induce terminal differentiation in stem cells by interfering with DNA replication, methods of inducing pancreatic differentiation, and differentiated cells obtained thereof” (priority 2018, dated 2026)

Assays:
[1] = system: pancreatic progenitors and beta cells; test: Cell cycle progression profiling by flow cytometry (Edu incubation, Hoechst DNA content, KI67); format: cell-based, human
Protocol: The beta cell clusters were dissociated using TrypLE™ Express into single cells. Cells were fixed with 4% PFA for 10 min and followed by permeabilization at −20° C. with cold methanol for 10 min. Primary antibodies were added at a dilution of 1:100 in autoMACs Rinsing Solution (Cat. No. 130-091-222, Miltenyi Biotec) containing 0.5% BSA at 4° C. for 1 hour. Secondary antibodies were added at a dilution of 1:500 at room temperature for 1 hour. The cells were filtered with BD Falcon 12×75 mm tube with cell strainer cap (Cat. No. 352235, BD) and subsequently analyzed by flow cytometer. Data were analyzed using Flowjo software. Negative controls were performed by only adding secondary antibodies.
To investigate the mechanism underlying the increased purity of stem cell-derived C-peptide positive cells induced by APH, cell proliferation, apoptosis and differentiation efficiency were examined during differentiation. The cell cycle progression was profiled at day 15, day 18, day 20 and day 27 of beta cell differentiation. In untreated cells, C-peptide positive cells started to form from day 15 (about 5%) (FIG. 2A) and reached a peak at day 20 (about 46%) (FIG. 2B). About 2% of total cells underwent proliferation during 2 hours of Edu incubation at each stage before day 20 and very few C-peptide positive cells were labeled positive for Edu (FIG. 2B). At day 27, the percentage of proliferating cells increased to about 13% and the percentage of C-peptide positive cells decreased due to proliferation of non-C-peptide cells in the clusters (FIG. 2B). When APH was added from day 15 to day 27, the number of C-peptide positive cells was increased as early as day 18, 3 days after addition of APH (FIG. 2C). At day 20, about 60% cells expressed C-peptide and the high expression of C-peptide was maintained until the day 27.
To determine the cell cycle phase at which aphidicolin arrested pancreatic progenitors and beta cells, flow cytometry combined with Hoechst staining for DNA content and EdU labeling was performed.
By the end of day 27, 30% of control cells were in cell cycle through G1 to M phase indicated by the expression of KI67 (a proliferation marker expressed in the cells within cell cycle) and amount of DNA content (FIG. 3A). […] The cell cycle gene expression in insulin expressing cells was also examined.

[2] = system: sc-beta cell clusters; test: Static glucose stimulated C-peptide secretion; format: cell-based, human; details: 2 mM versus 20 mM glucose
Protocol: Krebs Ringer buffer (KRB) was prepared by addition of 129 mM NaCl, 4.8 mM KCl, 2.5 mM CaCl2), 1.2 mM MgSO4, 1 mM Na2HPO4, 1.2 mM KH2PO4, 5 mM NaHCO3, 10 mM HEPES and 0.1% BSA in deionized water and was sterilized using 0.22 μm filter. 2 mM and 20 mM glucose solution were prepared in KRB for low glucose and high glucose challenge of sc-beta cell clusters. 10-20 sc-beta cell clusters (about 5×10^5 cells) were collected from control and cells treated with cell cycle inhibitors including APH and treated conditions and pre-incubated in 500 μl low glucose solution for 1 hour. Clusters were then washed once with low glucose solution and sequentially incubated in 200 μl of low glucose and then high glucose solution for 30 minutes. 130 μl supernatant of each condition were collected. Supernatants containing secreted C-peptide stimulated by low and high glucose were processed using Mercodia Ultrasensitive Human C-peptide ELISA kit. Fold changes of C-peptide secretion before and after glucose stimulation were calculated.
Insulin positive cells were isolated based on GFP expression and the expressions of genes related to the maturation of beta cells including PDX1, NKX6.1, MAFA and insulin were evaluated (FIG. 6A). […] In addition, the C-peptide secretion was increased 2-6-fold, with an average of 3-fold, in response to high levels of glucose (FIG. 6D).

C[C@@]1(CO)[C@H](O)CC[C@@]2(C)[C@H]1CC[C@H]1C[C@@H]3C[C@@]12CC[C@]3(O)CO [APH, Aphidicolin]
number of C-peptide positive cells ([1]; day 18, 3 days after addition of APH (added day 15 to day 27)): increased | cells expressing C-peptide ([1]; day 20, APH added from day 15): about 60% | cell cycle phase of arrest ([1]; end of day 27): arrested in G1 phase | cells in cell cycle (KI67) ([1]; end of day 27): About 5% | high expression of C-peptide ([1]; until day 27, APH added day 15 to day 27): maintained | proliferating cells (Edu) ([1]; whole duration of differentiation, APH day 15 to day 27): Very few cells, if any | C-peptide secretion increase in response to high levels of glucose [2]: 2-6 fold | C-peptide secretion increase in response to high levels of glucose, average [2]: 3 fold
